Laboratory results from US6566331B1, “Treatment of collagen related diseases” (Alphamed Pharmaceutical Corp, priority 1999, dated 2003).

Tests used:
Assay type in all cases: in vivo, human
[1] = tested on: women with interstitial cystitis; assay: 19 patient study of women with interstitial cystitis, intravesical instillation
Experimental: A 19 patient study of women with interstitial cystitis was conducted for four weeks. Three of the patients were diagnosed as being urinary incontinent. The diagnosis of IC was considered as being mild to severe. Powdered alpha 1-antitrypsin (40 mg) was dissolved in 40 ml of saline solution. The solutions were instilled into the bladder for 20 minutes weekly for four weeks. Cystoscopy was carried out during and after filling the bladder for one minute at a pressure of 80 cm of water under spinal and general anesthesia. Bladder biopsies were carried out during cystoscopy. 24-hour collection for measurement of creatine, methylhistamine and tryptase were taken.
In lieu of the recombinant or natural alpha 1-antitrypsin, the conjugate with PEG may be used.

[2] = tested on: patient having scleroderma of the finger; assay: salve used daily on a patient having scleroderma of the finger
Experimental: A salve comprising 1% alpha 1-antitrypsin was prepared with Aquaphor® and 1% water. The salve was used daily on a patient having scleroderma of the finger. The finger was bent and constricted. The skin around the finger was hardened. After a daily application for one month the skin was softer, the finger was more flexible and the bending was less severe.

[3] = tested on: patient with rheumatoid arthritis; assay: DMSO solution administered to arthritic knee of a patient with rheumatoid arthritis; settings: 5 percent solution in DMSO, topical on arthritic knee; after one week of treatment
Experimental: A 5 percent solution of alpha 1-antitrypsin was prepared with DMSO. A patient with rheumatoid arthritis administered the composition to an arthritic knee.

[4] = 40 mg in 40 ml saline instilled into the bladder for 20 minutes weekly for four weeks, weekly studies
[5] = salve, 1% alpha 1-antitrypsin with Aquaphor and 1% water, daily application for one month

Substance: alpha 1-antitrypsin
- creatine, 24-hour collection [1, 4]: decrease
- methylhistamine, 24-hour collection [1, 4]: decrease
- tryptase, 24-hour collection [1, 4]: decrease
- lesions by cystoscopy ([1]; after two weeks of weekly instillation): substantial decrease in lesions
- continence of the incontinent patients ([1]; after two weeks of weekly instillation, three urinary incontinent patients): continent
- bending of the finger [2, 5]: less severe
- flexibility of the finger [2, 5]: more flexible
- skin around the finger [2, 5]: softer
- finger position after the treatment was stopped ([2]; within six months after stopping the 1% salve): returned to the bent position
- knee flexibility [3]: greater flexibility
- knee pain [3]: free of pain
- knee swelling [3]: substantial reduction in swelling
